# According to patent US20250152623A1, “Compositions and kits for use in wound healing, tissue regeneration and/or bone regeneration” (priority 2022, published 2025):
# Like-named read-outs stand apart in the source and are kept apart here.
# How the values were obtained:
# [1] = test system: human primary fibroblasts obtained from human oral mucosa; type: cell-based; conditions: 0.256 mg/mL calcium peroxide as single substance; cytotoxicity = more than 30% reduction (ISO 10993-5); FIG. 1
# Description: (§1) To investigate the cytotoxicity of calcium peroxide, hyaluronic acid, and a combination thereof on cells, the substances were given to human primary fibroblasts, osteoblasts, and human umbilical vein endothelial cells (HUVEC) in vitro and compared to untreated cells and a dead control. For this purpose, cytotoxicity tests were performed according to ISO 10993-5 by measuring the cell viability quantitatively and […]. Additionally, biocompatibility tests were performed in the chorioallantoic membrane assay (CAM assay) in fertilized hen's eggs. All tests were repeated at least three times independently. In all tests 30 mg/mL hyaluronic acid and 0.256 mg/mL CaO2 were used. According to ISO 10993-5, cytotoxicity is defined by more than 30% reduction of the viable cell number by the substance.
# Fibroblasts were obtained from human oral mucosa. Tissue samples were cut into small pieces of approximately 2×2 mm with a sterile disposable scalpel. […]
# Cells were seeded into a 24-well-plate and they were given time to adhere overnight. […] Fluorescence was measured on a Fluorescence Microplate Reader (Fluoroskan Ascent Microplate reader, ThermoFisher Scientific, Waltham, MA, USA). Results were given as relative fluorescence using a 538 nm excitation filter and a 600 nm emission filter, normalized to untreated control.
# [2] = test system: human primary osteoblasts; type: cell-based; conditions: 30 mg/mL hyaluronic acid, 0.256 mg/mL CaO2; FIG. 2
# Description: as §1
# Primary human osteoblasts were isolated according to the following protocol. Human bone specimens were obtained during hip or knee joint replacement surgeries. […]
# Cells were seeded into a 24-well-plate and they were given time to adhere overnight. […] Fluorescence was measured on a Fluorescence Microplate Reader (Fluoroskan Ascent Microplate reader, ThermoFisher Scientific, Waltham, MA, USA). […]
# [3] = test system: planktonic Streptococcus oralis ATCC 9811; test: Planktonic bacterial growth and metabolic activity of S. oralis; type: cell-based; conditions: for optical density at 600 nm (growth) compared to the control: 24 h anaerobic, FIG. 5 upper left
# Description: According to FIG. 5, different concentrations of calcium peroxide were applied to mature biofilms in combination with hyaluronic acid. Calcium peroxide was added to planktonic bacterial strains S. oralis and P. gingivalis in concentrations ranging from 0 mg/L (control) to 500 mg/L with hyaluronic acid being present in a concentration of 11.550 mg/L. Shown in each case are the optical density at 600 nm, a parameter for the growth of a bacterial culture, and the relative metabolic activity. […] The autoclaved calcium peroxide (CaO2) (Sigma Aldrich, St. Louis, MO, US), ZnO2 and/or MgO2 was dissolved in sterile filtered, deionized, and autoclaved water. By serial dilutions with water (for planktonic experiments) or BHI/VitK (for biofilm experiments) the solutions were adjusted to concentration of 3.9-500 mg/l CaO2 for bacterial experiments. All solutions were freshly prepared for each experiment. Streptococcus oralis ATCC 9811 was obtained from the American Type Culture Collection (ATCC) and Porphyromonas gingivalis DSM 20709 derived from the German Collection of Microorganisms and Cell Cultures (DSMZ). The strains were grown under anaerobic conditions (80% N2, 10% H2, 10% CO2) at 37° C. for 24 h in 50 mL screw cap tube (Sarstedt, Nümbrecht, Germany) with Brain Heart Infusion Medium (BHI; Oxoid, Wesel, Germany) containing 10 μg/mL vitamin K (Roth, Karlsruhe, Germany; BHI/VitK) to obtain 24-hour-old precultures for further processing. In order to determine the influence of CaO2 on planktonic S. oralis and P. gingivalis, the 24-hour-old precultures were pelleted by centrifugation at 4,000 g for 15 min at 4° C., the supernatant was discarded and the bacterial pellets were resuspended in fresh double concentrated BHI/VitK medium (2×BH/VitK). The optical density was measured at 600 nm (OD600; BioPhotometer, Eppendorf, Hamburg, Germany), adjusted to 0.2 and dilute 1:10 with 2×BHI/VitK to 0.02. The freshly prepared CaO2 solution was mixed equally with the bacterial cultures (OD600=0.02) to a final OD600=0.01 and following final concentrations for CaO2: As positive controls, bacterial cultures (OD600=0.02) were mixed 1:2 with sterile filtered, deionized and autoclaved water (growth controls). […] To evaluate the effect of CaO2 on the growth of planktonic S. oralis and P. gingivalis cultures, the 24-h-old bacterial cultures were mixed and the optical density (OD600) was measured with a plate reader (Tecan, Mennedorf, Switzerland). Metabolic activity was measured using the BacTiter-Glo™ Microbial Viability Assay (Promega, Mannheim, Germany). […] After 5 min of incubation at room temperature under light protection, the samples were mixed again and the amount of adenosine triphosphate (ATP) was determined by measuring the luminescence using the plate reader. […]
# [4] = test system: chorioallantoic membrane (CAM); type: in vivo
# Description: as §1
# Fertilized white Leghorn chicken eggs (LSL Rhein-Main GmbH, Dieburg, Germany) were incubated at 38° C. with constant humidity of 55 rH in an incubator (Type 3000 digital and fully automatic, Siepmann GmbH, Herdecke, Germany). For the first three days, eggs were placed horizontally on one side to ensure that the CAM would detach from the upwards pointing eggshell. On the embryonic development day (EDD) 3, eggs were prepared by removing 5-6 mL of the albumen in order to enlarge the space between eggshell and CAM. A small window of 3×2 cm was cut into the upwards pointing part of the eggshell. The window was covered with Parafilm® (Sigma-Aldrich, St. Louis, MO, USA) to prevent evaporation. On EDD-8, Gelaspon Strips (Bausch & Lomb Inc.; New York, USA) were cut in slices of 1×0.5×2 mm. 20 μl of each substance (512 mg/L CaO2, 10 mg/mL sodium hyaluronate, combination thereof) were added to the sponge. 20 μl of water was used as control. The further assessment of potential tissue adverse events was performed blinded. After 3 h, on EDD-10, and EDD-12, pictures were taken with a digital intravital fluorescence microscope (Olympus BXFM, Olympus Deutschland GmbH, Hamburg, Germany) at a 100-fold magnification using the cellSens Dimension software package.
# [5] = test system: planktonic Porphyromonas gingivalis DSM 20709; test: Planktonic bacterial growth and metabolic activity of P. gingivalis; type: cell-based; conditions: for relative metabolic activity compared to the control: FIG. 5 lower right; for optical density at 600 nm (growth) compared to the control: FIG. 5 top right
# Description: According to FIG. 5, different concentrations of calcium peroxide were applied to mature biofilms in combination with hyaluronic acid. Calcium peroxide was added to planktonic bacterial strains S. oralis and P. gingivalis in concentrations ranging from 0 mg/L (control) to 500 mg/L with hyaluronic acid being present in a concentration of 11.550 mg/L. Shown in each case are the optical density at 600 nm, a parameter for the growth of a bacterial culture, and the relative metabolic activity. […] The autoclaved calcium peroxide (CaO2) (Sigma Aldrich, St. Louis, MO, US), ZnO2 and/or MgO2 was dissolved in sterile filtered, deionized, and autoclaved water. By serial dilutions with water (for planktonic experiments) or BHI/VitK (for biofilm experiments) the solutions were adjusted to concentration of 3.9-500 mg/l CaO2 for bacterial experiments. All solutions were freshly prepared for each experiment. Streptococcus oralis ATCC 9811 was obtained from the American Type Culture Collection (ATCC) and Porphyromonas gingivalis DSM 20709 derived from the German Collection of Microorganisms and Cell Cultures (DSMZ). The strains were grown under anaerobic conditions (80% N2, 10% H2, 10% CO2) at 37° C. for 24 h in 50 mL screw cap tube (Sarstedt, Nümbrecht, Germany) with Brain Heart Infusion Medium (BHI; Oxoid, Wesel, Germany) containing 10 μg/mL vitamin K (Roth, Karlsruhe, Germany; BHI/VitK) to obtain 24-hour-old precultures for further processing. In order to determine the influence of CaO2 on planktonic S. oralis and P. gingivalis, the 24-hour-old precultures were pelleted by centrifugation at 4,000 g for 15 min at 4° C., the supernatant was discarded and the bacterial pellets were resuspended in fresh double concentrated BHI/VitK medium (2×BH/VitK). The optical density was measured at 600 nm (OD600; BioPhotometer, Eppendorf, Hamburg, Germany), adjusted to 0.2 and dilute 1:10 with 2×BHI/VitK to 0.02. The freshly prepared CaO2 solution was mixed equally with the bacterial cultures (OD600=0.02) to a final OD600=0.01 and following final concentrations for CaO2: As positive controls, bacterial cultures (OD600=0.02) were mixed 1:2 with sterile filtered, deionized and autoclaved water (growth controls). As negative controls, 2×BHI/VitK was mixed equally with sterile filtered, deionized and autoclaved water (medium control) and the CaO2 solution was mixed 1:2 with 2×BHI/VitK (CaO2 solution control). Finally, 150 μL of each suspension was transferred into each well of a 96-well plate and cultivated for 24 h at 37° C. rotating (180 rpm) under anaerobic conditions (Anaerobic Jar and AnaeroGen; Oxoid, Wesel, Germany). All experiments were carried out in three biological and two technical replicates. To evaluate the effect of CaO2 on the growth of planktonic S. oralis and P. gingivalis cultures, the 24-h-old bacterial cultures were mixed and the optical density (OD600) was measured with a plate reader (Tecan, Mennedorf, Switzerland). Metabolic activity was measured using the BacTiter-Glo™ Microbial Viability Assay (Promega, Mannheim, Germany). 50 μL BacTiter-Glo™ reagent and 50 μL of the well-mixed bacterial cultures were added to opaque 96-well plates. After 5 min of incubation at room temperature under light protection, the samples were mixed again and the amount of adenosine triphosphate (ATP) was determined by measuring the luminescence using the plate reader. All results were normalized to the medium or CaO2 solution controls.
Molecule,reduction in cell viability [1],viability after treatment in comparison to untreated osteoblasts (=100% cell viability) [2],growth inhibition of S. oralis ([3]; calcium peroxide 125 mg/L),optical density at 600 nm (growth) compared to the control ([3]; calcium peroxide 250 mg/L),optical density at 600 nm (growth) compared to the control ([3]; calcium peroxide 500 mg/L),"relative metabolic activity compared to the control ([3]; calcium peroxide up to 500 mg/L, FIG. 5 lower left)",adverse tissue reactions on the CAM ([4]; FIG. 4),angiogenesis (area of the sponge covered by blood vessels) compared to untreated CAM tissue ([4]; FIG. 4A),"cytotoxic effect on the CAM ([4]; substance applied on sponge, FIGS. 4A and 4B)",relative metabolic activity compared to the control ([5]; calcium peroxide 125 mg/L),optical density at 600 nm (growth) compared to the control ([5]; calcium peroxide 125 mg/L),relative metabolic activity compared to the control ([5]; calcium peroxide 250 mg/L),optical density at 600 nm (growth) compared to the control ([5]; calcium peroxide 250 mg/L),relative metabolic activity compared to the control ([5]; calcium peroxide 500 mg/L),optical density at 600 nm (growth) compared to the control ([5]; calcium peroxide 500 mg/L),adverse tissue reactions on the CAM ([4]; in vivo),cytotoxic effect on the CAM ([4]; in vivo)
[Ca+2].[O-][O-] [calcium peroxide],more than 30%,hardly showed a reduction,only very slightly inhibited,decreased significantly,decreased significantly,unchanged,no adverse tissue reactions,not significantly different,none of the tested substances had a cytotoxic effect,significantly decreased,significantly decreased,significantly decreased,significantly decreased,significantly decreased,significantly decreased,,
hyaluronic acid,,,,,,,,,,,,,,,,no adverse tissue reactions,none of the tested substances had a cytotoxic effect
